Test results published in the supplement of paper PMC10307832.

Experiments:
Experiment in all cases: relative viability (nuclei count vs DMSO), 5 days (fraction); higher = more cells survive
[1] = compound: C1=CC2=NC=CN=C2C=C1/C=C/3\C(=O)NC(=O)S3 + CC(=O)Nc1cccc(-n2c(=O)n(C3CC3)c(=O)c3c(Nc4ccc(I)cc4F)n(C)c(=O)c(C)c32)c1 [Trametinib] (partner 0.02 µM)
Method in brief: (§1)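 Nuclei were stained with Hoechst during a one-step fixation (final 0.05% Triton X-100, 1% formaldehyde, 1 ug/ml Hoechst) carried out 5 days after dosing, then counted on 4× images. The cells, lung cancer lines in 1536-well plates, had been dosed by pin tool the day after seeding with one drug alone or a fixed anchor-drug dose plus five library-drug doses (not always all listed) in √10 steps. Relative viability is the nuclei count in treated wells divided by that in vehicle wells, and each value is the median of duplicate plates.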

[2] = compound: C1=CC2=NC=CN=C2C=C1/C=C/3\C(=O)NC(=O)S3 + N=C(N)NC(=N)NCCc1ccccc1 [Phenformin] (partner 250 µM)
Method in brief: as §1

[3] = compound: C1=CC2=NC=CN=C2C=C1/C=C/3\C(=O)NC(=O)S3 + Nc1ncn([C@H]2C[C@H](O)[C@@H](CO)O2)c(=O)n1 [Decitabine] (partner 2 µM)
Method in brief: as §1

BGJ398 + Navitoclax = compound: CCN1CCN(c2ccc(Nc3cc(N(C)C(=O)Nc4c(Cl)c(OC)cc(OC)c4Cl)ncn3)cc2)CC1 [BGJ398] + CC1(C)CCC(c2ccc(Cl)cc2)=C(CN2CCN(c3ccc(C(=O)NS(=O)(=O)c4ccc(N[C@H](CCN5CCOCC5)CSc5ccccc5)c(S(=O)(=O)C(F)(F)F)c4)cc3)CC2)C1 [Navitoclax] (partner 0.5 µM)
Method in brief: as §1

Cell Line | relative viability ([1]; first compound 0.02 µM) | relative viability ([1]; first compound 0.06325 µM) | relative viability ([1]; first compound 0.2 µM) | relative viability ([1]; first compound 0.6325 µM) | relative viability ([1]; first compound 2 µM) | relative viability ([2]; first compound 0.02 µM) | relative viability ([2]; first compound 0.06325 µM) | relative viability ([2]; first compound 0.2 µM) | relative viability ([2]; first compound 0.6325 µM) | relative viability ([2]; first compound 2 µM) | relative viability ([3]; first compound 0.02 µM) | relative viability ([3]; first compound 0.06325 µM) | relative viability ([3]; first compound 0.2 µM) | relative viability ([3]; first compound 0.6325 µM) | relative viability ([3]; first compound 2 µM) | relative viability (BGJ398 + Navitoclax; first compound 0.01 µM) | relative viability (BGJ398 + Navitoclax; first compound 0.03162 µM) | relative viability (BGJ398 + Navitoclax; first compound 0.1 µM) | relative viability (BGJ398 + Navitoclax; first compound 0.3162 µM) | relative viability (BGJ398 + Navitoclax; first compound 1 µM)
HCC-78 | 0.772 | 0.643 | 0.677 | 0.794 | 0.532 | 0.597 | 0.592 | 0.698 | 0.698 | 0.368 | 0.703 | 0.578 | 0.668 | 0.594 | 0.525 | 0.734 | 0.751 | 0.935 | 0.879 | 0.823
LOU-NH91 | 0.791 | 0.808 | 0.799 | 0.792 | 0.726 | 0.712 | 0.72 | 0.569 | 0.703 | 0.564 | 0.797 | 0.849 | 0.83 | 0.782 | 0.756 | 0.685 | 0.402 | 0.668 | 0.427 | 0.701
NCI-H3122 | 0.246 | 0.261 | 0.237 | 0.191 | 0.235 | 0.401 | 0.356 | 0.379 | 0.392 | 0.366 | 0.434 | 0.431 | 0.468 | 0.459 | 0.403 | 0.989 | 1.01 | 1.06 | 0.984 | 1.05
HCC-827 | 0.611 | 0.35 | 0.505 | 0.456 | 0.544 | 0.481 | 0.372 | 0.41 | 0.427 | 0.455 | 0.259 | 0.343 | 0.345 | 0.392 | 0.33 | 0.935 |  | 1.03 | 1.02 | 1.02
SK-LU-1 | 0.506 | 0.417 | 0.558 | 0.542 | 0.407 | 0.681 | 0.628 | 0.552 | 0.554 | 0.395 | 0.597 | 0.712 | 0.74 | 0.639 | 0.596 | 0.832 | 0.988 | 0.865 | 1.02 | 0.908
NCI-H1975 | 0.273 | 0.361 | 0.355 | 0.33 | 0.241 | 0.406 | 0.448 | 0.408 | 0.402 | 0.312 | 0.362 | 0.359 | 0.436 | 0.37 | 0.359 | 1.11 | 1.09 | 1.12 | 1.19 | 1.05
NCI-H1651 | 0.821 | 0.642 | 0.86 | 0.849 | 0.725 | 0.314 | 0.321 | 0.325 | 0.298 | 0.285 | 0.56 | 0.424 | 0.651 | 0.576 | 0.552 | 0.988 | 1.18 | 0.978 | 0.961 | 0.991
NCI-H441 | 0.409 | 0.52 | 0.451 | 0.343 | 0.305 | 0.856 | 1.06 | 0.84 | 0.755 | 0.327 | 0.246 | 0.284 | 0.251 | 0.23 | 0.287 | 0.577 | 0.795 | 0.501 | 0.604 | 0.722
LCLC-97TM1 | 0.197 | 0.193 | 0.222 | 0.232 | 0.167 | 0.389 | 0.374 | 0.423 | 0.432 | 0.162 | 0.293 | 0.244 | 0.229 | 0.247 | 0.221 | 0.315 | 0.271 | 0.41 | 0.683 | 0.646
NCI-H727 | 0.386 | 0.369 | 0.407 | 0.397 | 0.29 | 0.552 | 0.504 | 0.686 | 0.454 | 0.283 | 0.891 | 0.848 | 0.957 | 0.915 | 0.445 | 0.487 | 0.485 | 0.337 | 0.547 | 0.453
NCI-H1355 | 0.385 | 0.432 | 0.462 | 0.413 | 0.382 | 0.435 | 0.374 | 0.489 | 0.431 | 0.392 | 0.348 | 0.353 | 0.357 | 0.367 | 0.33 | 0.955 | 0.92 | 0.996 | 0.914 | 0.825
HOP-62 | 0.355 | 0.366 | 0.419 | 0.369 | 0.38 | 0.549 | 0.643 | 0.695 | 0.646 | 0.622 | 0.188 | 0.278 | 0.215 | 0.191 | 0.254 | 0.915 | 1 | 1.1 | 1.02 | 1.01
NCI-H2085 | 0.477 | 0.427 | 0.56 | 0.511 | 0.51 | 0.747 | 0.721 | 0.716 | 0.671 | 0.65 | 0.495 | 0.457 | 0.578 | 0.539 | 0.566 | 1.09 | 1.13 | 1.15 | 1.23 | 1.05
